Laboratory results reported in PMC6116703, “Ethenesulfonyl fluoride derivatives as telomerase inhibitors: structure-based design, SAR, and anticancer evaluation in vitro” (Journal of Enzyme Inhibition and Medicinal Chemistry, 2018).
Like-named read-outs stand apart in the source and are kept apart here.

What was measured:
human melanoma cell A375 = assay: Cell proliferation (MTT) assay, A375; format: cell-based
Description: (§1) The antiproliferative activities evaluation was conducted by using a modified procedure as described in the literature. Briefly, target tumour cells were grown to log phase in RPMI 1640 medium supplemented with 10% fetal bovine serum. After diluting to 3 × 10^4 cells mL^−1 with the complete medium, 100 µL of the obtained cell suspension was added to each well of 96-well culture plates. The subsequent incubation was performed at 37 °C, 5% CO2 atmosphere for 24 h before subjecting to antiproliferation assessment. The tested samples at pre-set concentrations were added to six wells with Doxorubicin (AMD) co-assayed as a positive reference. After 48 h of exposure period, 25 µL of PBS containing 2.5 mg·mL^−1 of MTT was added to each well. After 4 h, the medium was replaced by 150 µL DMSO to dissolve the purple formazan crystals produced. The absorbance at 570 nm of each well was measured using an ELISA plate reader. The data represented the mean of three experiments in triplicate and were expressed as means ± SD using Student’s test.

[1] = system: human breast cancer cell MDA-MB-231; assay: Cell proliferation (MTT) assay, MDA-MB-231; format: cell-based
Description: as §1

[2] = system: human hepatoma cell SMMC-7721; assay: Cell proliferation (MTT) assay, SMMC-7721; format: cell-based; conditions: read-out: IC50 SMMC-7721
Description: as §1

[3] = system: human gastric cancer cells MGC-803; assay: Cell proliferation (MTT) assay, MGC-803; format: cell-based; conditions: antiproliferative, MTT, 48 h exposure; read-out: IC50 MGC-803
Description: as §1

telomerase = target: T1, telomerase (Homo sapiens, UniProt O14746); assay: Telomerase activity TRAP-PCR-ELISA assay (A375 cell extract); format: biochemical; conditions: IC50 inhibitory activity against telomerase, TRAP-PCR-ELISA, A375 cells, 24 h treatment
T1 construct: endogenous in cells; host or cells: A375 human melanoma cells
T1 sequence (O14746 whole entry): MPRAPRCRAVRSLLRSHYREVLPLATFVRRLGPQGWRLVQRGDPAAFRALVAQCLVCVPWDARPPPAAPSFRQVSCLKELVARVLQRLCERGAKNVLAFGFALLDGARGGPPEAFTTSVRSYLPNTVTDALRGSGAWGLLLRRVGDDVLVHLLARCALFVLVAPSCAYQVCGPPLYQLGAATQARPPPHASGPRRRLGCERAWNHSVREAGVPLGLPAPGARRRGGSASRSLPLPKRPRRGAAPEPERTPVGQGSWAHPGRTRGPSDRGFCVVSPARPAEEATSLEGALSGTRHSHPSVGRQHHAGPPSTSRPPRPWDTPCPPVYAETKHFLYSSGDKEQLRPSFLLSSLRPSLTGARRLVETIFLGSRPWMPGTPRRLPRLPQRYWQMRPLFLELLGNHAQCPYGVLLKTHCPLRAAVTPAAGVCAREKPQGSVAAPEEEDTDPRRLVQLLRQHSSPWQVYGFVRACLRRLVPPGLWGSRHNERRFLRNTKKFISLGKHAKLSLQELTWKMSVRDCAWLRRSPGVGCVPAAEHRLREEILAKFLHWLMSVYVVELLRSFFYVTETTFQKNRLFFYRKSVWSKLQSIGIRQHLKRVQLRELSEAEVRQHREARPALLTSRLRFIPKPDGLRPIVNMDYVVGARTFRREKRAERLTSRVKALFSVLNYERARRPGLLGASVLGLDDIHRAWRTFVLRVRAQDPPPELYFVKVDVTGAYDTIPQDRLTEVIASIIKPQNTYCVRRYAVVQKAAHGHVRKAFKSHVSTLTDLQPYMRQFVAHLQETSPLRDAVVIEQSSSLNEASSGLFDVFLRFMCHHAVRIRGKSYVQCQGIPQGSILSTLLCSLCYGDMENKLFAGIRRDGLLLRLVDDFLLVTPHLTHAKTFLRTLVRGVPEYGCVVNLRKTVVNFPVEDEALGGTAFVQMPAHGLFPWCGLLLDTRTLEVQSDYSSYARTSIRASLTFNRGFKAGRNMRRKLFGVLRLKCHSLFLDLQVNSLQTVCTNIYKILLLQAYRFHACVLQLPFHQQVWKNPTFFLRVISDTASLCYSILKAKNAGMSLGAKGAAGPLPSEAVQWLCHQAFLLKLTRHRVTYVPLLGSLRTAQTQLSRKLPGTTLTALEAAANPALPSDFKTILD
Description: Thirty-six compounds were tested in a search for inhibitors of telomerase activity using the TRAP-PCR-ELISA assay. In detail, the A375 cells were firstly maintained in RPMI 1640 buffer (Hyclone, Miami, FL), supplemented with 10% fetal bovineserum (GIBCO, New York, NY), streptomycin (0.1 mg/mL) and penicillin (100 IU/mL) at 37 °C in a humidified atmosphere containing 5% CO2. After trypsinisation, 5 × 10^4 cultured cells in logarithmic growth were seeded into T25 flasks (Corning, New York, NY) and cultured to allow to adherence. […] After 24 h treatment, the cells were harvested by cell scraper orderly followed by washing once with PBS. The cells were lysed in 150 µL RIPA cell lysis buffer (Santa Cruz, Santa Cruz, CA), and incubated on ice for 30 min. The cellular supernatants were obtained via centrifugation at 12,000g for 20 min at 4 °C and stored at –80 °C. The TRAP-PCR-ELISA assay was performed using a telomerase detection kit (Roche, Basel, Switzerland) according to the manufacturer’s protocol. In brief, 2 µL of cell extracts were mixed with 48 µL TRAP reaction mixtures. TRAP primers and Taq polymerase are incubated at 25 °C for 30 min. PCR was then initiated at 94 °C, 120 s for predenaturation and performed using 35 cycles each consisting of 94 °C for 30 s, 50 °C for 30 s, 72 °C for 90 s. Then 20 µL of PCR products were hybridised to a digoxigenin (DIG)-labelled telomeric repeat specific detection probe. And the PCR products were immobilised via the biotin-labelled primer to a streptavidin-coated microtiter plate subsequently. The immobilised DNA fragments were detected with a peroxidase-conjugated anti-DIG antibody and visualised following the addition of the stop regent. The microtitre plate was assessed on TECAN Infinite M200 microplate reader (Mannedorf, Switzerland) at a wavelength of 490 nm, and the final value were presented as mean ± SD[23].

[4] = antiproliferative, MTT, 48 h exposure, read-out: IC50 A375
[5] = antiproliferative, MTT, 48 h exposure, read-out: IC50 MDA-MB-231
[6] = antiproliferative, MTT, 48 h exposure
[7] = Homo sapiens, A-375, 48 h, read-out: IC50 A375, antiproliferative, MTT, 48 h exposure
[8] = Homo sapiens, MDA-MB-231, 48 h, read-out: IC50 MDA-MB-231, antiproliferative, MTT, 48 h exposure

| SMILES | IC50 (human melanoma cell A375; [4]) | IC50 [1, 5] | IC50 [2, 6] | IC50 (telomerase) | further results |
| --- | --- | --- | --- | --- | --- |
| O=S(=O)(F)/C=C/c1cccc2ccccc12 [Compound 30] | 28 ± 1.31 µM | 25.1 ± 0.99 µM | 2.29 ± 0.17 µM |  |  |
| O=S(=O)(F)/C=C/c1ccc(OC(F)(F)F)cc1 [Compound 9] | 24.1 ± 0.99 µM | 36.5 ± 2.56 µM | 9.04 ± 0.99 µM |  | IC50 [3]: 38.6 ± 1.22 µM |
| CC(=O)c1ccc(/C=C/S(=O)(=O)F)cc1 [Compound 11] | 10.6 ± 0.9 µM | 5.66 ± 0.28 µM | 65.8 ± 1.79 µM |  |  |
| O=S(=O)(F)/C=C/c1cccc2c1oc1ccccc12 [Compound 38] | 40.8 ± 1.39 µM | 83.2 ± 2.91 µM |  |  |  |
| O=S(=O)(F)/C=C/c1cc(C(F)(F)F)cc(C(F)(F)F)c1 [Compound 68] | 19.7 ± 1 µM | 21.2 ± 0.8 µM |  |  | IC50 [3]: 37.4 ± 1.35 µM |
| O=S(=O)(F)/C=C/c1cccc(F)c1 [Compound 18] |  |  |  | 1.09 ± 0.11 µM | IC50 (human melanoma cell A375; [7]): ~3 µM; IC50 (human melanoma cell A375; read-out: IC50 A375, antiproliferative, MTT, 48 h exposure): 3.82 ± 0.31 µM; IC50 [1, 8]: 5.24 ± 0.4 µM; IC50 ([2]; Homo sapiens, SMMC-7721, 48 h): 24.8 ± 1.58 µM |
| O=S(=O)(F)/C=C/c1cccc(Br)c1 [Compound 19] | 20.1 ± 0.9 µM | 12.1 ± 1.52 µM |  |  |  |
| Cc1ccc(/C=C/S(=O)(=O)F)c(C)c1 [Compound 27] | 7.83 ± 0.4 µM | 39.8 ± 2.55 µM | 50.7 ± 1.82 µM |  |  |
| Cc1ccccc1/C=C/S(=O)(=O)F [Compound 24] | 24.5 ± 1.55 µM | 41.8 ± 2.97 µM | 52.8 ± 1.44 µM |  |  |
| O=[N+]([O-])c1cccc(/C=C/S(=O)(=O)F)c1 [Compound 22] |  |  |  | 2.25 ± 0.3 µM | IC50 (human melanoma cell A375; [7]): 4.14 ± 0.21 µM; IC50 [1, 8]: 6.54 ± 0.74 µM; IC50 ([2]; Homo sapiens, SMMC-7721, 48 h): 26.1 ± 0.73 µM |
| O=S(=O)(F)/C=C/c1ccccc1Cl [Compound 78] | 26.3 ± 2.35 µM | 35.2 ± 1.28 µM |  |  |  |
| Cc1ccc(S(=O)(=O)n2cc(/C=C/S(=O)(=O)F)c3ccccc32)cc1 [Compound 44] |  |  |  | 15.2 ± 1.56 µM | IC50 (human melanoma cell A375; [7]): 5.34 ± 0.3 µM; IC50 ([2]; Homo sapiens, SMMC-7721, 48 h): 9.24 ± 0.4 µM |
| O=S(=O)(F)/C=C/c1cccc(O)c1 [Compound 34] | 5.37 ± 0.6 µM | 23.4 ± 0.88 µM | 23 ± 0.45 µM |  |  |
| O=Cc1ccc(/C=C/S(=O)(=O)F)o1 [Compound 37] | 9.09 ± 0.81 µM | 21.5 ± 1.29 µM | 35.1 ± 0.49 µM |  |  |
| COc1cccc(/C=C/S(=O)(=O)F)c1 [Compound 16] | 21.1 ± 0.87 µM | 28.5 ± 1.78 µM | 45.6 ± 1.29 µM |  |  |
| CCOC(=O)c1ccc(/C=C/S(=O)(=O)F)cc1 [Compound 14] | 50 ± 1.78 µM | 3.6 ± 0.3 µM | 27 ± 1.01 µM |  |  |
| N#Cc1ccc(/C=C/S(=O)(=O)F)cc1 [Compound 13] |  |  |  | 39 ± 1.29 µM |  |
| O=S(=O)(F)/C=C/c1cccc(C(F)(F)F)c1 [Compound 20] |  |  |  | 4.17 ± 0.39 µM | IC50 (human melanoma cell A375; [7]): 10.4 ± 0.82 µM; IC50 [1, 8]: 3.18 ± 0.2 µM; IC50 ([2]; Homo sapiens, SMMC-7721, 48 h): 20 ± 1.74 µM |
| O=S(=O)(F)/C=C/c1ccc(F)cc1F [Compound 32] | 12.3 ± 0.41 µM | 16.1 ± 0.41 µM | 27 ± 0.9 µM |  |  |
| O=S(=O)(F)/C=C/c1ccccc1O [Compound 35] | 7.41 ± 0.77 µM | 7.41 ± 0.33 µM | 36.5 ± 0.7 µM |  |  |
| COc1ccc(/C=C/S(=O)(=O)F)cc1 [Compound 4] | 16.9 ± 1.22 µM | 24.7 ± 2.15 µM | 73.8 ± 1.7 µM |  |  |
| CS(=O)(=O)c1cccc(/C=C/S(=O)(=O)F)c1 [Compound 81] |  |  |  | 2.55 ± 0.4 µM | IC50 (human melanoma cell A375; [7]): 7.89 ± 0.56 µM; IC50 [1, 8]: 27.8 ± 1.32 µM; IC50 ([2]; Homo sapiens, SMMC-7721, 48 h): 34.9 ± 1.7 µM |
| Cc1cccc(/C=C/S(=O)(=O)F)c1 [Compound 17] |  |  |  | 10.1 ± 1.13 µM | IC50 (human melanoma cell A375; [7]): 12.1 ± 1.19 µM; IC50 [1, 8]: 10.6 ± 0.91 µM |
| CSc1ccc(/C=C/S(=O)(=O)F)cc1 [Compound 64] | 23.9 ± 1.37 µM | 38.3 ± 0.9 µM |  |  |  |
| O=S(=O)(F)/C=C/c1cc(O)cc(O)c1 [Compound 36] |  |  |  | 1.44 ± 0.22 µM | IC50 (human melanoma cell A375; [7]): 4.01 ± 0.68 µM; IC50 [1, 8]: 37.2 ± 1.4 µM; IC50 ([2]; Homo sapiens, SMMC-7721, 48 h): 29 ± 0.78 µM |
| O=S(=O)(F)/C=C/c1ccc(O)cc1 [Compound 33] | 4.96 ± 0.51 µM | 19 ± 0.65 µM | 26.2 ± 0.39 µM |  | IC50 [3]: 35.9 ± 0.79 µM |
